Assay results reported in patent publication US20080145858A1, “DETECTION AND IDENTIFICATION OF TOXICANTS BY MEASUREMENT OF GENE […]” (priority 2003, published 2008).
Marks after values point to notes of the source that are not given here.

System: Xenopus laevis cleavage stage embryos (stage 8)
Test: Xenopus cDNA microarray, differential gene expression after PMA treatment during cleavage stage (Group I)
Type: in vivo
Conditions: for Normalized by Landmarks (1.59) / Normalized by all Data Points (1.28) / Ratio of Medians (Cy5/Cy3) First Spot / Ratio of Medians (Cy5/Cy3) Mean / Ratio of Medians (Cy5/Cy3) Second Spot / (CY3/CY5) by Landmarks (1.6) / (CY3/CY5) by all Data Points (1.3) / Normalization by Landmarks (1.6) / Normalization by all Data Points (1.3): PMA 100 ng/ml; for % increase of mRNA expression by Microarray analysis (NF by all data point): Stage 8
From the text: Specifically, the method and screen of the present invention function as follows. EST clones produced from Xenopus laevis unfertilized eggs were used in the present study with ˜1,200 EST clones from a 18,500 EST clone set selected for production of a Xenopus cDNA microarray. The Xenopus microarray was used to measure the effect of chemical treatment on Xenopus embryo gene regulation. The chemical treatment was a phorbol ester, PMA. Xenopus eggs were obtained from females induced for ovulation and fertilized in vitro. Control Xenopus laevis embryos were allowed to develop to stage 8 blastula or stage 15 neurula. Treated embryos were exposed to PMA during cleavage stage or during neurulation with end points of blastula (stage 8) or neurula (stage 15). Specifically, PMA 100 ng/ml was added to the incubation media during cleavage stages for evaluation in stage 8 embryo or PMA was added during neural induction for evaluation in stage 15 embryos. RNA extracted from the embryos was used to generate fluorescent cDNA probes for Xenopus microarray analyses to measure differential gene expression with and without the phorbol ester treatment. Analysis was performed using paired RNA samples to compare PMA-treated and untreated embryos: Group I measured the effects of PMA-treatment during the cleavage stage in stage 8 embryos and Group II measured the effects of PMA-treatment during neurulation in stage 15 embryos. Group III measured the change in gene expression between stage 8 and stage 15 embryos.
cDNA fragments were obtained by PCR replication of Xenopus laevis unfertilized egg cDNA inserts, purified, quantitated and loaded onto glass chips by robotics. In addition to the selected ˜1,200 genes, 64 lambda Q gene, an internal control cDNA (Genomic Solutions, Inc., Ann Arbor, Mich.) was loaded on the chip. The insert DNA from ˜1,200 clones were PCR amplified using forward and reverse primers (GF.200 primers, Research Genetics, Huntsville, Ala.). A second PCR was carried out using 1 μl of the primary PCR (20 μl) for template. Excess dNTPs, polymerase and other PCR artifacts were removed from the secondary PCR reactions using Millipore Multiscreen plates (Millipore Corporation, Bedford, Mass.) using the standard protocol. The purity of the PCR products was assessed by electrophoresis and documented using an Alphalmager 1000 Digital Imaging System (Alpha Innotech Corporation, San Leandro, Calif.). The DNA obtained by PCR was quantitated using PicoGreen (Molecular Probes, Eugene, Oreg.). The DNA was denatured and arrayed onto amino-silane coated microscope slides (CMT-GAPS coated slides, Corning, Corning, N.Y.) using a Flexys robotic workstation (Genomic Solutions Inc.). The ˜1,200 PCR products were arrayed in duplicate on each slide and cross-linked. Each gene chip contained duplicate cDNA samples.
Total RNA was prepared from embryos treated in three separate dishes per treatment group that were pooled. Total RNA was isolated from the frog embryos (1,200 embryos for each probe production) using TRIzol extraction (Gibco BRL, Grand Island, N.Y.) and Qiagen RNeasy kits (Qiagen, Valencia, Calif.). The ethanol precipitated RNA was resuspended in RNase-free water, quantitated with RiboGreen (Molecular Probes, Eugene, Oreg.). Total RNA was further purified using oligoTex mRNA maxi kit (Qiagen Co.) with the bound mRNA eluted with minimum volume of elution buffer and precipitated with ethanol. The recovery rate of mRNA by the ethanol precipitation method was ˜70%. Cy3- or Cy5-tagged probes were produced from an mRNA mixture (20 μl) of Xenopus mRNA (5 μg) and lambda Q gene mRNA (3.5 ng) reverse-transcribed with oligo(dT)18-22 primer and dNTPs and the reverse-transcribed cDNA was cross-linked with Cy3 or Cy5 as described in Clontech Atlas™ Glass Fluorescent Labeling kit manual (www.clontech.com). After hydrolysis of the RNA and purification of the probe (Centricon 50, Millipore, Bedford, Mass.), the cDNA in TE buffer was quantitated by absorbance at 260 nm. […]

[1] = cleavage and neurulation stage embryos
[2] = ras-related protein gene, stage 8

## CCCCCCCCCCCCCC(=O)O[C@@H]1[C@@H](C)[C@@]2(O)[C@@H](C=C(CO)C[C@]3(O)C(=O)C(C)=C[C@@H]23)[C@@H]2C(C)(C)[C@]12OC(C)=O [PMA, phorbol 12-myristate 12-acetate]
PBX0140D01 mRNA, stage 8
  Normalized by Landmarks (1.59): 3.66
  Normalized by all Data Points (1.28): 2.94
  Ratio of Medians (Cy5/Cy3) First Spot: 2.09
  Ratio of Medians (Cy5/Cy3) Mean: 2.30 ± 0.20
  Ratio of Medians (Cy5/Cy3) Second Spot: 2.50
PBX0140F01 mRNA, stage 8
  (CY3/CY5) by Landmarks (1.6): 2.39
  (CY3/CY5) by all Data Points (1.3): 3.83
  Normalization by Landmarks (1.6): 0.42
  Normalization by all Data Points (1.3): 0.26
  Ratio of Medians (Cy5/Cy3) First Spot: 0.24
  Ratio of Medians (Cy5/Cy3) Mean: 0.20 ± 0.04
  Ratio of Medians (Cy5/Cy3) Second Spot: 0.16
PBX0140H03 mRNA, stage 8
  (CY3/CY5) by Landmarks (1.6): 3.52
  (CY3/CY5) by all Data Points (1.3): 5.64
  Normalization by Landmarks (1.6): 0.28
  Normalization by all Data Points (1.3): 0.18
  Ratio of Medians (Cy5/Cy3) First Spot: 0.09
  Ratio of Medians (Cy5/Cy3) Mean: 0.14 ± 0.05
  Ratio of Medians (Cy5/Cy3) Second Spot: 0.19
PBX0141B03 mRNA, stage 8
  (CY3/CY5) by Landmarks (1.6): 1.74
  (CY3/CY5) by all Data Points (1.3): 2.78
  Normalization by Landmarks (1.6): 0.58
  Normalization by all Data Points (1.3): 0.36
  Ratio of Medians (Cy5/Cy3) First Spot: 0.38
  Ratio of Medians (Cy5/Cy3) Mean: 0.28 ± 0.10
  Ratio of Medians (Cy5/Cy3) Second Spot: 0.18
PBX0141F12 mRNA, stage 8
  (CY3/CY5) by Landmarks (1.6): 3.56
  (CY3/CY5) by all Data Points (1.3): 5.70
  Normalization by Landmarks (1.6): 0.28
  Normalization by all Data Points (1.3): 0.18
  Ratio of Medians (Cy5/Cy3) First Spot: 0.10
  Ratio of Medians (Cy5/Cy3) Mean: 0.14 ± 0.03
  Ratio of Medians (Cy5/Cy3) Second Spot: 0.17
PBX0141G06 mRNA, stage 8
  (CY3/CY5) by Landmarks (1.6): 1.67
  (CY3/CY5) by all Data Points (1.3): 2.67
  Normalization by Landmarks (1.6): 0.60
  Normalization by all Data Points (1.3): 0.38
  Ratio of Medians (Cy5/Cy3) First Spot: 0.17
  Ratio of Medians (Cy5/Cy3) Mean: 0.29 ± 0.12
  Ratio of Medians (Cy5/Cy3) Second Spot: 0.41
PBX0141G10 mRNA, stage 8
  Normalized by Landmarks (1.59): 4.98
  Normalized by all Data Points (1.28): 4.01
  Ratio of Medians (Cy5/Cy3) First Spot: 2.53
  Ratio of Medians (Cy5/Cy3) Mean: 3.13 ± 0.59
  Ratio of Medians (Cy5/Cy3) Second Spot: 3.72
PBX0142E01 mRNA, stage 8
  (CY3/CY5) by Landmarks (1.6): 2.64
  (CY3/CY5) by all Data Points (1.3): 4.23
  Normalization by Landmarks (1.6): 0.38
  Normalization by all Data Points (1.3): 0.24
  Ratio of Medians (Cy5/Cy3) First Spot: 0.14
  Ratio of Medians (Cy5/Cy3) Mean: 0.18 ± 0.04
  Ratio of Medians (Cy5/Cy3) Second Spot: 0.22
PBX0142E09 mRNA, stage 8
  Normalized by Landmarks (1.59): 4.32
  Normalized by all Data Points (1.28): 3.48
  Ratio of Medians (Cy5/Cy3) First Spot: 2.50
  Ratio of Medians (Cy5/Cy3) Mean: 2.72 ± 0.21
  Ratio of Medians (Cy5/Cy3) Second Spot: 2.93
PBX0142H06 mRNA, stage 8
  (CY3/CY5) by Landmarks (1.6): 2.52
  (CY3/CY5) by all Data Points (1.3): 4.04
  Normalization by Landmarks (1.6): 0.40
  Normalization by all Data Points (1.3): 0.25
  Ratio of Medians (Cy5/Cy3) First Spot: 0.15
  Ratio of Medians (Cy5/Cy3) Mean: 0.19 ± 0.04
  Ratio of Medians (Cy5/Cy3) Second Spot: 0.23
PBX0143C01 mRNA, stage 8
  (CY3/CY5) by Landmarks (1.6): 2.54
  (CY3/CY5) by all Data Points (1.3): 4.07
  Normalization by Landmarks (1.6): 0.39
  Normalization by all Data Points (1.3): 0.25
  Ratio of Medians (Cy5/Cy3) First Spot: 0.16
  Ratio of Medians (Cy5/Cy3) Mean: 0.19 ± 0.03
  Ratio of Medians (Cy5/Cy3) Second Spot: 0.22
PBX0143D10 mRNA, stage 8
  (CY3/CY5) by Landmarks (1.6): 1.57
  (CY3/CY5) by all Data Points (1.3): 2.51
  Normalization by Landmarks (1.6): 0.64
  Normalization by all Data Points (1.3): 0.40
  Ratio of Medians (Cy5/Cy3) First Spot: 0.22
  Ratio of Medians (Cy5/Cy3) Mean: 0.31 ± 0.11
  Ratio of Medians (Cy5/Cy3) Second Spot: 0.40
PBX0143E06 mRNA, stage 8
  Normalized by Landmarks (1.59): 3.85
  Normalized by all Data Points (1.28): 3.10
  Ratio of Medians (Cy5/Cy3) First Spot: 2.92
  Ratio of Medians (Cy5/Cy3) Mean: 2.42 ± 0.50
  Ratio of Medians (Cy5/Cy3) Second Spot: 1.91
PBX0144A09 mRNA, stage 8
  (CY3/CY5) by Landmarks (1.6): 6.45
  (CY3/CY5) by all Data Points (1.3): 10.33
  Normalization by Landmarks (1.6): 0.15
  Normalization by all Data Points (1.3): 0.10
  Ratio of Medians (Cy5/Cy3) First Spot: 0.06
  Ratio of Medians (Cy5/Cy3) Mean: 0.07 ± 0.02 ^a
  Ratio of Medians (Cy5/Cy3) Second Spot: 0.09
PBX0144C12 mRNA, stage 8
  Normalized by Landmarks (1.59): 5.55
  Normalized by all Data Points (1.28): 4.47
  Ratio of Medians (Cy5/Cy3) First Spot: 4.75
  Ratio of Medians (Cy5/Cy3) Mean: 3.49 ± 1.26
  Ratio of Medians (Cy5/Cy3) Second Spot: 2.23
PBX0144E04 mRNA, stage 8
  Normalized by Landmarks (1.59): 5.45
  Normalized by all Data Points (1.28): 4.38
  Ratio of Medians (Cy5/Cy3) First Spot: 3.67
  Ratio of Medians (Cy5/Cy3) Mean: 3.42 ± 0.25
  Ratio of Medians (Cy5/Cy3) Second Spot: 3.17
PBX0145A06 mRNA, stage 8
  Normalized by Landmarks (1.59): 4.55
  Normalized by all Data Points (1.28): 3.66
  Ratio of Medians (Cy5/Cy3) First Spot: 2.27
  Ratio of Medians (Cy5/Cy3) Mean: 2.86 ± 0.59
  Ratio of Medians (Cy5/Cy3) Second Spot: 3.44
PBX0145A10 mRNA, stage 8
  (CY3/CY5) by Landmarks (1.6): 1.93
  (CY3/CY5) by all Data Points (1.3): 3.10
  Normalization by Landmarks (1.6): 0.52
  Normalization by all Data Points (1.3): 0.32
  Ratio of Medians (Cy5/Cy3) First Spot: 0.28
  Ratio of Medians (Cy5/Cy3) Mean: 0.25 ± 0.03
  Ratio of Medians (Cy5/Cy3) Second Spot: 0.22
PBX0145E05 mRNA, stage 8
  (CY3/CY5) by Landmarks (1.6): 5.43
  (CY3/CY5) by all Data Points (1.3): 8.69
  Normalization by Landmarks (1.6): 0.18
  Normalization by all Data Points (1.3): 0.12
  Ratio of Medians (Cy5/Cy3) First Spot: 0.11
  Ratio of Medians (Cy5/Cy3) Mean: 0.09 ± 0.02
  Ratio of Medians (Cy5/Cy3) Second Spot: 0.07
PBX0145E09 mRNA, stage 8
  (CY3/CY5) by Landmarks (1.6): 2.76
  (CY3/CY5) by all Data Points (1.3): 4.42
  Normalization by Landmarks (1.6): 0.36
  Normalization by all Data Points (1.3): 0.23
  Ratio of Medians (Cy5/Cy3) First Spot: 0.16
  Ratio of Medians (Cy5/Cy3) Mean: 0.17 ± 0.02
  Ratio of Medians (Cy5/Cy3) Second Spot: 0.19
PBX0145E10 mRNA, stage 8
  (CY3/CY5) by Landmarks (1.6): 2.85
  (CY3/CY5) by all Data Points (1.3): 4.57
  Normalization by Landmarks (1.6): 0.35
  Normalization by all Data Points (1.3): 0.22
  Ratio of Medians (Cy5/Cy3) First Spot: 0.21
  Ratio of Medians (Cy5/Cy3) Mean: 0.17 ± 0.05
  Ratio of Medians (Cy5/Cy3) Second Spot: 0.12
PBX0145H10 mRNA, stage 8
  Normalized by Landmarks (1.59): 3.78
  Normalized by all Data Points (1.28): 3.05
  Ratio of Medians (Cy5/Cy3) First Spot: 2.90
  Ratio of Medians (Cy5/Cy3) Mean: 2.38 ± 0.52
  Ratio of Medians (Cy5/Cy3) Second Spot: 1.86
[1]
  expression of gene of EST PBX0144A09: highly down-regulated
  expression of genes of ESTs PBX0134G08, PBX0144C12, PBX0136C09, PBX0134H03, PBX0136F03, PBX0143E06 and PBX0137G06: highly up-regulated
Cleavage stage, treated vs untreated embryos, Table 1, Panel A
  up-regulation of the 25 highly up-regulated Xenopus genes: 3-8 fold
Gene PBX0135A08
  % increase of mRNA expression by Microarray analysis (NF by all data point): 270%^a % of control
Gene PBX013409
  % increase of mRNA expression by Microarray analysis (NF by all data point): 380% of control
[2]
  RAB-1A expression ratio: 2.10
  RAB-9 expression: down-regulated
  RAP-1B expression: down-regulated
Stage 8
  Phosphatase 2A regulatory subunit expression (PBX0140D01): 3 fold
